According to patent publication EP0408806A1, “Antihypercholesterolemic agents” (MERCK & CO. INC., priority 1989, dated 1991):

Target: T1, HMG-CoA reductase (Rattus norvegicus, UniProt P51639)
T1 sequence (P51639 1-887): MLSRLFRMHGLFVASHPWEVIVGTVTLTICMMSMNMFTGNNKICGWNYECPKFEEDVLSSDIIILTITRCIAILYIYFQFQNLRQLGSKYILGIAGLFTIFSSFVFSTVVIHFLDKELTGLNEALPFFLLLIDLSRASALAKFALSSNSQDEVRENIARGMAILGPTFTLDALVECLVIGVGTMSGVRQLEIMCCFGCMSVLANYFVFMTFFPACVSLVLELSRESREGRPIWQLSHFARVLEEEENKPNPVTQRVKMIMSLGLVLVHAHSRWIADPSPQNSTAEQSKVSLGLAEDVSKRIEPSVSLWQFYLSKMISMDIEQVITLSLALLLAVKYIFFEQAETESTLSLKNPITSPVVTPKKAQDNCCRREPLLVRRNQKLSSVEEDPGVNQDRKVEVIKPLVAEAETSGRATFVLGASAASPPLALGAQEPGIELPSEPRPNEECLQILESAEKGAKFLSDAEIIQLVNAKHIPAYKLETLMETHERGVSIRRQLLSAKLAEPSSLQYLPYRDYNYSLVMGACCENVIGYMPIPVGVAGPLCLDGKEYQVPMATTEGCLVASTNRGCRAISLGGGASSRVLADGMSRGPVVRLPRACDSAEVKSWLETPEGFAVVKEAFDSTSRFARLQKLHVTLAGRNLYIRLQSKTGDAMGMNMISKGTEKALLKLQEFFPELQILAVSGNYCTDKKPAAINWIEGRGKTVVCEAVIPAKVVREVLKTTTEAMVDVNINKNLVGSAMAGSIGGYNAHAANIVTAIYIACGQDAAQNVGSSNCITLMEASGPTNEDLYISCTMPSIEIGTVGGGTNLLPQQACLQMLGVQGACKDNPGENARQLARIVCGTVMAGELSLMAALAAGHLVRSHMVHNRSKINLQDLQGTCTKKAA
Test: intrinsic HMG-CoA reductase inhibition, in vitro protocol published in J. Med. Chem., 28, p. 347-358 (1985)
Format: biochemical
Settings: read-out: IC₅₀ value (converted)
Experimental: The intrinsic HMG-CoA reductase inhibition activity of the claimed compounds is measured in the in vitro protocol published in J. Med. Chem., 28, p. 347-358 (1985).

IC50: 4.62 nM
Compound: CCC(C)(C)C(=O)OC1CC(C)=CC2=CC(=O)C(C)C(CCC3CC(O)CC(=O)O3)C21 [6(R)-[2-[8(S)-(2,2-dimethylbutyryloxy)-2(S),6-dimethyl-3-oxo-1,2,7,8,8a(R)-pentahydronaphthyl-1(S)]ethyl]-4(R)-hydroxy-3,4,5,6-tetrahydro-2H-pyran-2-one]
